# Earlier results in patent publication US20040028740A1, “Steroid hormones as transfer agents” (priority 2000, published 2004).
# [1] = daily doses of 200 mg and 300 mg
compound,measurement,setting,value
CC(=O)[C@H]1CC[C@H]2[C@@H]3CCC4=CC(=O)CC[C@]4(C)[C@H]3CC[C@]12C [progesterone],effect on HDL-cholesterol levels,[1],does not affect
same,"effect on liver enzymes (ASAT, ALAT, AFOS)",[1],does not affect
same,effect on sex-hormone binding-globulin (SHBG) synthesis,[1],does not affect
same,effect on carbohydrate metabolism,orally administered,adversely affects neither
same,effect on plasma lipids,orally administered,adversely affects neither
